Reference: US20230075765A1, “PYRROLO[2,3-D]PYRIMIDINE DERIVATIVE TARGETING EGFR MUTATION, AS WELL AS THE PREPARATIVE METHOD AND THE USE THEREOF” (WEST CHINA HOSPITAL, SICHUAN UNIVERSITY, priority 2020, published 2023)

Assays:
Assay type in all cases: cell-based, human
[1] = system: normal cells and different lung cancer cell lines; experiment: Inhibition of cell proliferation, CCK8 method, comparison in words over the whole cell panel; conditions: BEAS-2B, HBE, H460, A549, H1975, HCC827; CCK8, 48 h
Experimental: Compounds 1-9 of the present invention were respectively weighed and dissolved in 1 ml of dimethyl sulfoxide (DMSO), to prepare a 10 mM drug solution, which was stored in a refrigerator at −20° C. in the dark after packaging. The stock solution was diluted with the corresponding culture medium to the required concentration just before the experiment.
HBE cells and BEAS-2B cells are normal lung bronchial epithelial cell lines, and both cells were cultured in DMEM high glucose medium (supplemented with 10% fetal bovine serum and 1% double antibody) to the logarithmic growth phase; H460 cells, A549 cells, H1975 cells and HCC827 cells are lung cancer cell lines, and all of them were cultured in RPMI1640 medium (supplemented with 10% fetal bovine serum and 1% double antibody) to the logarithmic growth phase. Among them, H1975 cells and HCC827 cells are EGFR mutant cells.
When the cells were cultured to 90% of the growth density, the cells were digested with 0.25% trypsin to prepare a single cell suspension. The cells were counted, and then seeded in a 96-well plate at a density of 5000 cells/well, 100 μl for each well. The culture plate was moved into a CO2 incubator and incubated for 24 h at 37° C. and 5% CO2. Compounds at different concentrations were added to each well, 5 replicate wells for each concentration, and the cells were treated with the compounds for 48 hours. CCK8 detection reagent was added to each well according to the operation manual, and then the plate was further incubated for 1 h before terminating the culture. 450 nm wavelength was chosen, and the absorbance value of each well was adjusted on the microplate ELISA analyzer. The result was recorded. […] was taken as the horizontal axis, and absorbance as the vertical axis to plot a curve. The half inhibitory concentration (IC50) was calculated by Bliss method. Each experiment was repeated at least 3 times.
Normal lung cell lines and different lung cancer cell lines were selected for experiments. Amongst, the compound with high anti-cancer activity was screened, whose anti-tumor activity was further studied.

[2] = system: H1975 cells; experiment: Apoptosis, Annexin V-FITC/PI double staining, flow cytometry; conditions: for Total apoptosis rate (%): 18 h (control 9.2)
Experimental: (§1) Apoptosis was detected by Annexin V-FITC/PI double staining method. A variety of different cells in the logarithmic growth phase were inoculated evenly in a 6-well plate at a concentration of 1×10^6 cells/well, 2 ml for each well, and then incubated overnight. Then, different compounds were added, and each compound was set different concentrations. After 18 h, the cells were collected with 0.25% trypsin without EDTA and washed twice with PBS solution. Then, the cells were stained by the apoptosis detection kit according to the instructions, and analyzed by flow cytometry.
(§2) In the experiment, human lung cancer cells HCC827 cells and H1975 cells were selected as the detection system. The control group was a blank control (DMSO). The test concentrations of the compounds were 0.5 μM and 5 μM. After treatment with the compounds for 18 h, the flow cytometry was used for detection. In the apoptosis result graph, the cells in quadrant E1 are necrotic cells, the cells in quadrant E2 are late apoptotic cells, the cells in quadrant E3 area represent live cells, and the cells in quadrant E4 are early apoptotic cells.

[3] = system: HCC827 cells; experiment: as above; conditions: for Total apoptosis rate (%): 18 h (control 10.8)
Experimental: as §1, §2

[4] = system: EGFR-Tyr992; experiment: Western blot, inhibition of EGFR phosphorylation; conditions: H1975 cells
Experimental: (§3) (1) Various cell lines in the logarithmic growth phase were evenly inoculated in a 6-well plate at a concentration of 3×10^6 cells/well, respectively, and cultured for 24 h;
(§4) (2) The culture supernatant was removed, and then the cells were washed twice with PBS, and treated with serum-free medium for 1 hour;
(§5) (3) The culture supernatant was removed, and each compound at different concentrations was added, then the cells were treated for 2 h;
(§6) (4) The supernatant was removed, and the cells were washed twice with pre-cooled PBS, then the supernatant was discarded;
(§7) (5) 100 μl of cell lysate was added to each well, and cells were lysed on ice for 10 min. The cells were scraped with a cell scraper. The cell lysate was transferred to a pre-cooled 1.5 ml EP tube, sonicated, and centrifuged under 12000 rpm at 4° C. for 10 min. The supernatant was carefully aspirated and stored at −20° C.
(§8) (6) To the aliquoted total cell protein, was added 5 μl of 5× loading buffer, and the protein was denatured in a water bath at 100° C. for 10 min, then the sample was centrifugated and loaded;
(1) The successfully transferred membrane was placed in the 1× blocking solution prepared, and kept in the blocking solution at room temperature for about 1 h; […]

[5] = system: Akt; experiment: Western blot, inhibition of Akt phosphorylation
Experimental: as §3, §4, §5, §6, §7, §8
(§9) (1) The successfully transferred membrane was placed in the 1× blocking solution prepared, and kept in the blocking solution at room temperature for about 1 h;
(§10) (2) EGFR protein and its downstream proteins were diluted with 1× primary antibody diluent, and incubated overnight at 4° C., using […] antibody as an internal reference;
(§11) (3) The membrane was washed 3 times with 1×TBST, 5 min for each time, and then washed with 1× secondary antibody dilution, followed by incubation for 1 h at room temperature. Finally, the membrane was washed 3 times with 1×TBST, 15 min for each time.
(§12) (2) The mixed ECL reagent was added to PVDF membrane (1 ml/10 cm^2), and subjected to chemiluminescence to obtain a band;
(§13) Western Blot method was used to analyze the influence of each compound on the expression of pathway proteins.

[6] = system: H1975 cells; experiment: Cell cycle, PI staining, flow cytometry; conditions: for G2/M phase (%): 18 h (control 14.52); for S phase (%): 18 h (control 30.25); for G0/G1 phase (%): 18 h (control 55.23)
Experimental: (§14) A variety of different cells in the logarithmic growth phase were inoculated evenly in a 6-well plate at a concentration of 1×10^6 cells/well, 2 ml for each well, and then incubated overnight. Then, different compounds were added, and each compound was set different concentrations. After 18 h, the cells were collected, resuspended in PBS, and centrifuged to remove the supernatant, to which was then added 0.5 ml of pre-cooled 75% absolute ethanol dropwise, followed by vortexing to mix the cells and standing overnight at 4° C. The solution was centrifuged at 1000 rpm/min for 4 min, and the supernatant was discarded. Propidium iodide staining solution was prepared by using 5.6 ml staining buffer, 210 μl propidium iodide staining solution (25×), and 56 μl RNaseA (2.5 mg/ml). 0.4 ml of propidium iodide staining solution was added to each tube to resuspend the cells, and then incubated for 30 min at room temperature in the dark. The cell suspension was gently pipetted to mix, filtered into a flow tube, and stored in the dark at 4° C. The cells were detected on the flow cytometer within 1 h.

[7] = system: HCC827 cells; experiment: Cell cycle, PI staining, flow cytometry; conditions: for G2/M phase (%): 18 h (control 24.99); for S phase (%): 18 h (control 33.66); for G0/G1 phase (%): 18 h (control 41.35)
Experimental: as §14

[8] = system: ERK1/2; experiment: Western blot, inhibition of ERK1/2 phosphorylation
Experimental: as §3, §4, §5, §6, §7, §8, §9, §10, §11, §12, §13

| SMILES | inhibitory effect on different cell lines (in words) [1] | apoptosis-inducing effect (in words) [2] | Total apoptosis rate (%) ([2]; 0.5 μM) | Total apoptosis rate (%) ([2]; 5 μM) | apoptosis-inducing effect (in words) [3] | Total apoptosis rate (%) ([3]; 0.5 μM) | Total apoptosis rate (%) ([3]; 5 μM) | inhibition of phosphorylation of EGFR-Tyr992 [4] | inhibition of phosphorylation of Akt ([5]; H1975 cells) | inhibition of phosphorylation of Akt ([5]; wild-type EGFR cells) | ratio of cells in the G0/G1 phase compared with the control group (in words) [6] | G2/M phase (%) ([6]; 0.5 μM) | S phase (%) ([6]; 0.5 μM) | G0/G1 phase (%) ([6]; 0.5 μM) | G2/M phase (%) ([6]; 5 μM) | S phase (%) ([6]; 5 μM) | G0/G1 phase (%) ([6]; 5 μM) | ratio of cells in the G0/G1 phase compared with the control group (in words) [7] | G2/M phase (%) ([7]; 0.5 μM) | S phase (%) ([7]; 0.5 μM) | also measured |
| --- | --- | --- | --- | --- | --- | --- | --- | --- | --- | --- | --- | --- | --- | --- | --- | --- | --- | --- | --- | --- | --- |
| C=CC(=O)Nc1cccc(Oc2nc(Nc3ccc(N4CCN(C)CC4)c(Cl)c3)nc3[nH]ccc23)c1 [Compound 2] | basically the same as that of the positive control |  |  |  |  |  |  |  |  |  |  |  |  |  |  |  |  |  |  |  |  |
| C=CC(=O)Nc1cccc(Oc2nc(Nc3ccc(N4CCN(C)CC4)c([N+](=O)[O-])c3)nc3[nH]ccc23)c1 [Compound 5] |  | certain apoptosis-inducing effects | 12.7 | 13.5 | certain apoptosis-inducing effects | 30.3 | 23.8 | effectively inhibited | inhibited | much weaker inhibitory effects | significantly higher | 9.17 | 4.64 | 86.20 | 11.64 | 14.04 | 74.33 | significantly higher | 9.72 | 16.99 | G0/G1 phase (%) ([7]; 0.5 μM): 73.29%; G2/M phase (%) ([7]; 5 μM): 14.12%; S phase (%) ([7]; 5 μM): 4.36%; G0/G1 phase (%) ([7]; 5 μM): 81.52%; inhibition of phosphorylation of ERK1/2 ([8]; H1975 cells): inhibited; inhibition of phosphorylation of ERK1/2 ([8]; wild-type EGFR cells): much weaker inhibitory effects |
| C=CC(=O)Nc1cccc(Oc2nc(Nc3ccc(N4CCN(C)CC4)c(N)c3)nc3[nH]ccc23)c1 [Compound 6] |  | certain apoptosis-inducing effects | 16.4 | 16.1 | certain apoptosis-inducing effects | 28.7 | 23.6 | effectively inhibited | inhibited | much weaker inhibitory effects | significantly higher | 10.49 | 5.28 | 84.24 | 13.18 | 10.59 | 76.23 | significantly higher | 10.27 | 11.62 | G0/G1 phase (%) ([7]; 0.5 μM): 78.11%; G2/M phase (%) ([7]; 5 μM): 7.95%; S phase (%) ([7]; 5 μM): 13.93%; G0/G1 phase (%) ([7]; 5 μM): 78.12%; inhibition of phosphorylation of ERK1/2 ([8]; H1975 cells): inhibited; inhibition of phosphorylation of ERK1/2 ([8]; wild-type EGFR cells): much weaker inhibitory effects |
| C=CC(=O)Nc1cccc(Oc2nc(Nc3ccc(N4CCN(C)CC4)c(N)c3)nc3c2ccn3COC(=O)C(C)(C)C)c1 [Compound 8] | relatively poor inhibitory effects on other cell lines |  |  |  |  |  |  |  |  |  |  |  |  |  |  |  |  |  |  |  |  |
| C=CC(=O)Nc1cccc(Oc2nc(Nc3ccc(N4CCN(C)CC4)c(I)c3)nc3c2ccn3COC(=O)C(C)(C)C)c1 [Compound 9] | poorer than that of other compounds |  |  |  |  |  |  |  |  |  |  |  |  |  |  |  |  |  |  |  |  |
